Assay [1] has as its target Interleukin-8 (Homo sapiens) (UniProt P10145). Description: inhibitors of NFkB activation in CF airway cells, SAR follow-up, KKLEB cells, panel, IL8 HTRF, NFkB-GFP (AID 651592).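 Further: immortalized cystic fibrosis airway epithelial KKLEB cells with an NF-kB GFP reporter.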 The note with it: PAF/TNFa-induced NFkB-GFP / IL8 HTRF. On the technique in general: In TR-FRET formats the signal depends on donor and acceptor labels being close together.
Experiment in assay [2]: as above
The note with it: PAF/TNFa-induced NFkB-GFP / IL8 HTRF, CF-PAF assay.

The subject of a further assay is IL8. The description is as above. The note with it: PAF/TNFa-induced NFkB-GFP / IL8 HTRF, mean of runs, mean IC50 across panel replicates.
Where [3] appears, read: mean of runs, mean IC50 across panel replicates.

Bounds are passed on as bounds.

Chain of Interleukin-8 (Homo sapiens) (P10145 whole entry, looked up): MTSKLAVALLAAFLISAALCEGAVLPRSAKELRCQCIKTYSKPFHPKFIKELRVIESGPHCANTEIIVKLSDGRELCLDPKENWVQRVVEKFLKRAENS

For `CCOc1ccc(NCc2cc3c(-c4ccc(F)cc4)nn(-c4ccccc4)c3[nH]c2=O)cc1`, the IC50 in assay [1] (IL8, PAF-induced, run 1) was 0.434 µM; in assay [1] (IL8, PAF-induced, run 2) it was 0.974 µM; in assay [1] (IL8, PAF-induced, run 3), 1.05 µM; in assay [1] (IL8, PAF-induced, run 4), 0.181 µM; in assay [1] (IL8, PAF-induced, run 5) it was 0.244 µM; in assay [1] (IL8, PAF-induced, run 6), 0.248 µM. For the same compound, the IC50 in assay [1] (IL8, TNFa-induced, run 1) was over 66 µM; in assay [1] (IL8, TNFa-induced, run 2), over 66 µM; in assay [1] (IL8, TNFa-induced, run 3) it was over 66 µM; in assay [1] (IL8, TNFa-induced, run 4) it was over 66 µM; in assay [1] (IL8, TNFa-induced, run 5) it was over 66 µM; in assay [1] (IL8, TNFa-induced, run 6), 14.8 µM. Further, the IC50 in assay [2] (setting [3]) is 9.11 µM; in assay [2] (run 1), 14.2 µM; in assay [2] (run 2) it was 15.7 µM; in assay [2] (run 3), 18.1 µM; in assay [2] (run 4), 1.81 µM; in assay [2] (run 5), 2.36 µM. The half-maximal inhibitory concentration (IC50) in assay [2] (run 6) is 2.48 µM; in the assay on IL8 (PAF-induced), 0.522 µM; in the assay with IL8 (TNFa-induced), 57.5 µM.
Take `O=C(Nc1ccc(N2CCN(C(=O)c3ccccc3F)CC2)cc1)c1ccccc1`: the IC50 in assay [1] (IL8, PAF-induced, run 1) was over 66 µM; in assay [1] (IL8, PAF-induced, run 2), over 66 µM; in assay [1] (IL8, PAF-induced, run 3) it was over 66 µM; in assay [1] (IL8, PAF-induced, run 4), over 66 µM; in assay [1] (IL8, PAF-induced, run 5) it was over 66 µM; in assay [1] (IL8, PAF-induced, run 6), over 66 µM. In addition, the IC50 in assay [1] (IL8, TNFa-induced, run 1) is over 66 µM; in assay [1] (IL8, TNFa-induced, run 2) it was over 66 µM; in assay [1] (IL8, TNFa-induced, run 3) it was 4.29 µM; in assay [1] (IL8, TNFa-induced, run 4), over 66 µM; in assay [1] (IL8, TNFa-induced, run 5), over 66 µM; in assay [1] (IL8, TNFa-induced, run 6) it was over 66 µM. In addition, the IC50 was 37.5 µM in assay [2] (setting [3]); 8.36 µM in assay [2] (run 1); 9.34 µM in assay [2] (run 2); 9.4 µM in assay [2] (run 3); over 66 µM in assay [2] (run 4); over 66 µM in assay [2] (run 5). For the same compound, the 50% inhibitory concentration (IC50) in assay [2] (run 6) was over 66 µM; with IL8 (PAF-induced), over 66 µM; in the assay on IL8 (TNFa-induced) it was 55.7 µM.
In the case of `O=C(Nc1ccc(N2CCN(C(=O)c3ccccc3Cl)CC2)cc1)c1ccncc1`, the IC50 in assay [1] (IL8, PAF-induced, run 1) is over 66 µM; in assay [1] (IL8, PAF-induced, run 2), over 66 µM; in assay [1] (IL8, PAF-induced, run 3), over 66 µM; in assay [1] (IL8, PAF-induced, run 4) it was 1.15 µM; in assay [1] (IL8, PAF-induced, run 5), 3.67 µM; in assay [1] (IL8, PAF-induced, run 6), 10 µM. The IC50 in assay [1] (IL8, TNFa-induced, run 1) was over 66 µM; in assay [1] (IL8, TNFa-induced, run 2), over 66 µM; in assay [1] (IL8, TNFa-induced, run 3) it was 2.69 µM; in assay [1] (IL8, TNFa-induced, run 4) it was over 66 µM; in assay [1] (IL8, TNFa-induced, run 5), over 66 µM; in assay [1] (IL8, TNFa-induced, run 6), over 66 µM. For the same compound, the half-inhibitory concentration (IC50) in assay [2] (setting [3]) came out at 11.8 µM; in assay [2] (run 1) it was 7.29 µM; in assay [2] (run 2), 8.71 µM; in assay [2] (run 3) it was 9.34 µM; in assay [2] (run 4) it was 5.23 µM; in assay [2] (run 5), 11.3 µM. Further, the IC50 was 29 µM in assay [2] (run 6), 35.5 µM with IL8 (PAF-induced) and 55.5 µM in the assay on IL8 (TNFa-induced).
As for `O=C(Nc1ccc(N2CCN(C(=O)c3ccccc3Cl)CC2)cc1)c1cncc(Br)c1`, the IC50 was 7.62 µM in assay [1] (IL8, PAF-induced, run 1); 8.41 µM in assay [1] (IL8, PAF-induced, run 2); 11.1 µM in assay [1] (IL8, PAF-induced, run 3); 3.16 µM in assay [1] (IL8, PAF-induced, run 4); 5.73 µM in assay [1] (IL8, PAF-induced, run 5); 17 µM in assay [1] (IL8, PAF-induced, run 6). Moreover, the IC50 in assay [1] (IL8, TNFa-induced, run 1) was 0.275 µM; in assay [1] (IL8, TNFa-induced, run 2), 2.14 µM; in assay [1] (IL8, TNFa-induced, run 3), 5.45 µM; in assay [1] (IL8, TNFa-induced, run 4), over 66 µM; in assay [1] (IL8, TNFa-induced, run 5), 8.3 µM; in assay [1] (IL8, TNFa-induced, run 6), 14.3 µM. Further, the IC50 was determined as 2.74 µM in assay [2] (setting [3]); 1.98 µM in assay [2] (run 1); 2.48 µM in assay [2] (run 2); 2.61 µM in assay [2] (run 3); 2.72 µM in assay [2] (run 4); 2.99 µM in assay [2] (run 5). Besides, the values for the IC50 (in assay [2] (run 6); in the assay on IL8 (PAF-induced); with IL8 (TNFa-induced)) were 3.67 µM, 8.85 µM and 16.1 µM, respectively.
As for `O=C(Nc1ccc(N2CCN(C(=O)c3ccc(F)cc3)CC2)cc1)c1cncc(Br)c1`, the IC50 in assay [1] (IL8, PAF-induced, run 1) amounted to 8.79 µM; in assay [1] (IL8, PAF-induced, run 2), 9.88 µM; in assay [1] (IL8, PAF-induced, run 3), 24.9 µM; in assay [1] (IL8, PAF-induced, run 4), 2.03 µM; in assay [1] (IL8, PAF-induced, run 5), 3.53 µM; in assay [1] (IL8, PAF-induced, run 6) it was 7.95 µM. Further, the 50% inhibitory concentration (IC50) in assay [1] (IL8, TNFa-induced, run 1) is over 66 µM; in assay [1] (IL8, TNFa-induced, run 2) it was over 66 µM; in assay [1] (IL8, TNFa-induced, run 3) it was over 66 µM; in assay [1] (IL8, TNFa-induced, run 4) it was over 66 µM; in assay [1] (IL8, TNFa-induced, run 5) it was 10.3 µM; in assay [1] (IL8, TNFa-induced, run 6), 25.4 µM. For the same compound, the IC50 was found to be 3.01 µM in assay [2] (setting [3]); 2.5 µM in assay [2] (run 1); 3.02 µM in assay [2] (run 2); 3.34 µM in assay [2] (run 3); 2.31 µM in assay [2] (run 4); 3.07 µM in assay [2] (run 5). Further, the figures for the IC50 (in assay [2] (run 6); with IL8 (PAF-induced); in the assay with IL8 (TNFa-induced)) were 3.82 µM, 9.52 µM and 50 µM, respectively.

In general, IC50 refers to the concentration that inhibits the measured activity by half. Read a low IC50 as higher potency.
